The assay has as its target ACE2 (Homo sapiens, UniProt Q9BYF1). The experiment in a line: ACE2 quenched fluorescence substrate (QFS) inhibition assay. Type of assay: biochemical. As for the experimental part:
Angiotensin converting enzyme 2 QFS assays were performed for 1 h in 50 uM QFS, 1 M NaCl, 100 mM Tris-Cl, pH 6.5 at 37∘C on a BMG LabTechnologies (Offenburg, Germany), FLUOStar Optima in a 96 well-plate. Subsequent data analysis determined the inhibition of native AngII, its analogs and C-terminal peptides compared to the ACE2 QFS substrate [MCA-APK(DNP)-OH, [Vickers et al., 2002]]. […] Three controls were included in each ACE2 QFS assay; AngII (100 and 10 μM), IHPF (100 μM) and a known ACE2 inhibitor (1 nM; Millennium Pharmaceuticals, Cambridge, MA, USA). QFS assay results were accepted when ACE2 inhibition by AngII (10 μM) was 80 ± 5%, IHPF was 65 ± –5% and the ([Qian et al., 1999]) ‘Millennium Inhibitor’ was 70 ± –5%. Acceptable coefficients of variation (CV; standard deviation/mean × 100) for sample triplicates were <7%.
A library of 40 tetrapeptides based on the four C-terminal residues of Ang II (Ile-His-Pro-Phe/IHPF) was generated and screened for ACE2 binding at 100 μM in order to identify key residues of the C-terminus of Ang II involved in binding to the ACE2 active site. […] Several substitutions (Val, Tyr, Ala, Gly, Phe, Trp, Pro, His, Ile, and Leu) were made in order to further probe the highly hydrophobic and cyclic specificity of the C-terminus of Ang II. A β-napthalene amino acid (Nth) derivative was used as a highly hydrophobic non-natural cyclic residue substitute, and Arg and Lys were substituted for histidine at the second position from the N-terminus of the tetrapeptide to determine if positive charge or other structural or positional requirements were important.

The mark [1] stands for this setting: read-out: ACE2 inhibition of terminally modified IHPF analogs, 100 μM (Table 3), peptide 100 μM, 50 uM QFS, 1 M NaCl, 100 mM Tris-Cl pH 6.5, 37 °C, 1 h.
Where [2] appears, read: peptide 100 μM, 50 uM QFS MCA-APK(DNP)-OH, 1 M NaCl, 100 mM Tris-Cl pH 6.5, 37 °C, 1 h, fluorescence, triplicate, read-out: ACE2 inhibition of single substitution analogs of the C-terminal of AngII (Table 1).
[3] abbreviates: read-out: ACE2 inhibition of terminally modified IHPF analogs, 10 μM (Table 3, in brackets), peptide 10 μM, 50 uM QFS, 1 M NaCl, 100 mM Tris-Cl pH 6.5, 37 °C, 1 h.
Where [4] appears, read: 1 h, pH 6.5, read-out: Inhibition (%) of ACE2, single and multiple residue substitution analogs (Table 2).
The mark [5] stands for this setting: pH 6.5, read-out: ACE2 inhibition of terminally modified IHPF analogs, 100 μM (Table 3).
[6] abbreviates: peptide 100 μM, 50 uM QFS, 1 M NaCl, 100 mM Tris-Cl pH 6.5, 37 °C, 1 h, triplicate, read-out: Inhibition (%) of ACE2, single and multiple residue substitution analogs (Table 2).

This note sets out measurements from PMC4311625, “Structural determinants for binding to angiotensin converting enzyme 2 (ACE2) and angiotensin receptors 1 and 2” (Frontiers in Pharmacology, 2015).

What is called inhibition is the change of the read-out against control, counted positive when it falls.

Where two headings read alike, the source gives them in different places. Peptide text beside a SMILES is read from it.

Sequence of ACE2 (Q9BYF1 18-805, species assumed): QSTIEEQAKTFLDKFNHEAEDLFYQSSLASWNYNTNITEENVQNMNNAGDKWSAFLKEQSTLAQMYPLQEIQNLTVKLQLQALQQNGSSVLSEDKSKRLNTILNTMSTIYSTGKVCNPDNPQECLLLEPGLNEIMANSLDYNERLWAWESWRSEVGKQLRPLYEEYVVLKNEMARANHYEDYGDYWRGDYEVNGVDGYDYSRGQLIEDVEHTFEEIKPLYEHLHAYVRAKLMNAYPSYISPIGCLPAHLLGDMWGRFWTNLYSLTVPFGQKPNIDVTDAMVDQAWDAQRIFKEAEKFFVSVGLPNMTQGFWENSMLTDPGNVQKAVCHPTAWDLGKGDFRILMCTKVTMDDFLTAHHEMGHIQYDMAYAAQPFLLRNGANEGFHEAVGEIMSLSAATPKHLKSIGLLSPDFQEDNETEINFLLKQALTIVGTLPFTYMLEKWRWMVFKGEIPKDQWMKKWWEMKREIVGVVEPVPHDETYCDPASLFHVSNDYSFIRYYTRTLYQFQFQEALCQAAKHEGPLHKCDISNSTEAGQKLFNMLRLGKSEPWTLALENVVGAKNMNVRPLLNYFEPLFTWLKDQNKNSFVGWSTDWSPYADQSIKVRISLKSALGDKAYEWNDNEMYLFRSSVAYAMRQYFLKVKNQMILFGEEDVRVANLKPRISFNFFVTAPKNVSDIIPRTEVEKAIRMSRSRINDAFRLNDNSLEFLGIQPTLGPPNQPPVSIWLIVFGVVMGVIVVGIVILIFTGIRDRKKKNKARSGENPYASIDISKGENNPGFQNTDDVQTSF

As to `CC(=O)N1CCC[C@H]1C(=O)N[C@@H](Cc1c[nH]cn1)C(=O)N[C@H](C(=O)N[C@@H](Cc1ccccc1)C(N)=O)C(C)C` [N-acetylated/C-amidated PHVF] (Ac-PHVF-NH2), the inhibition at 100 µM under setting [1] stood at 12%.

On to `CC[C@H](C)[C@H](N)C(=O)N[C@@H](Cc1c[nH]cn1)C(=O)N[C@@H](Cc1ccc(O)cc1)C(=O)N[C@@H](Cc1ccccc1)C(=O)O` [IHYF] (H-IHYF-OH), for which the inhibition at 100 µM under setting [2] was determined as 1%.

`CC(=O)N1CCC[C@H]1C(=O)N[C@@H](Cc1c[nH]cn1)C(=O)N1CCC[C@H]1C(=O)N[C@@H](Cc1ccccc1)C(=O)O` [N-acetylated PHPF] (Ac-PHPF-OH): under setting [1], the inhibition at 100 µM came out at 57%.

For the molecule `CC(=O)N1CCC[C@H]1C(=O)N[C@@H](Cc1ccc(O)cc1)C(=O)N1CCC[C@H]1C(=O)N[C@@H](Cc1ccccc1)C(=O)O` [N-acetylated PYPF] (Ac-PYPF-OH), under setting [3], the inhibition at 10 µM stood at 44%. The inhibition at 100 µM under setting [1] is 87%.

With `CC[C@H](C)[C@H](N)C(=O)N[C@@H](Cc1c[nH]cn1)C(=O)N[C@@H](Cc1c[nH]c2ccccc12)C(=O)N[C@@H](Cc1ccccc1)C(=O)O` [IHWF] (H-IHWF-OH), the inhibition at 100 µM under setting [2] was 0%.

As for `CC[C@H](C)[C@H](N)C(=O)N[C@@H](Cc1ccccc1)C(=O)N1CCC[C@H]1C(=O)N[C@@H](Cc1ccccc1)C(=O)O` [IFPF] (H-IFPF-OH), the inhibition at 100 µM under setting [2] is 0%.

As to `O=C(O)[C@H](Cc1ccccc1)NC(=O)[C@@H]1CCCN1C(=O)[C@H](Cc1ccc(O)cc1)NC(=O)[C@@H]1CCCN1` [PYPF] (H-PYPF-OH), the inhibition at 100 µM runs as follows: under setting [4], 93%; under setting [5], 93%. For the setting “pH 6.5, read-out: ACE2 inhibition of terminally modified IHPF analogs, 10 μM (Table 3, in brackets)”, the inhibition at 10 µM is 50%.

With `N[C@@H](Cc1ccc(O)cc1)C(=O)N[C@@H](Cc1c[nH]cn1)C(=O)N1CCC[C@H]1C(=O)N[C@@H](Cc1ccccc1)C(=O)O` [YHPF] (H-YHPF-OH), under setting [2], the inhibition at 100 µM was 34%.

With `CC[C@H](C)[C@H](N)C(=O)N[C@@H](Cc1c[nH]cn1)C(=O)N1CCC[C@H]1C(=O)N[C@@H](Cc1ccccc1)C(N)=O` [C-amidated IHPF] (H-IHPF-NH2), the inhibition at 100 µM under setting [1] was 18%.

On to `CC[C@H](C)[C@H](N)C(=O)N[C@H](C(=O)N1CCC[C@H]1C(=O)N[C@@H](Cc1ccccc1)C(=O)O)[C@@H](C)CC` [IIPF] (H-IIPF-OH), for which the inhibition at 100 µM under setting [2] was 32%.

As to `CC[C@H](C)[C@H](N)C(=O)N[C@@H](Cc1c[nH]cn1)C(=O)N1CCC[C@H]1C(=O)N[C@H](C(=O)O)[C@@H](C)CC` [IHPI] (H-IHPI-OH), the inhibition at 100 µM under setting [2] came to 36%.

With `CC(C)[C@H](NC(=O)[C@H](Cc1c[nH]cn1)NC(=O)[C@@H]1CCCN1)C(=O)N[C@@H](Cc1ccccc1)C(=O)O` [PHVF] (H-PHVF-OH), the inhibition at 100 µM under setting [6] came out at 93% and the inhibition at 100 µM under setting [1] worked out at 93%. Under setting [3], the inhibition at 10 µM came out at 49%.

Regarding `CC(=O)N1CCC[C@H]1C(=O)N[C@@H](Cc1ccc(O)cc1)C(=O)N[C@H](C(=O)N[C@@H](Cc1ccccc1)C(=O)O)C(C)C` [N-acetylated PYVF] (Ac-PYVF-OH), under setting [3], the inhibition at 10 µM is 18%. In addition, the inhibition at 100 µM under setting [1] stood at 78%.

Consider `CC(C)[C@H](N)C(=O)N[C@@H](Cc1c[nH]cn1)C(=O)N1CCC[C@H]1C(=O)N[C@@H](Cc1ccccc1)C(=O)O` [VHPF] (H-VHPF-OH), for which the inhibition at 100 µM by setting is: under setting [2], 78%; under setting [6], 78%.

As for `CC[C@H](C)[C@H](N)C(=O)N[C@@H](Cc1c[nH]cn1)C(=O)N1CCC[C@H]1C(=O)N[C@H](C(=O)O)C(C)C` [IHPV] (H-IHPV-OH), the inhibition at 100 µM under setting [2] is 18%.

Turning to `CC[C@H](C)[C@H](N)C(=O)N[C@@H](Cc1c[nH]cn1)C(=O)N[C@@H](Cc1ccccc1)C(=O)N[C@@H](Cc1ccccc1)C(=O)O` [IHFF] (H-IHFF-OH), the inhibition at 100 µM under setting [2] was determined as 0%.

`NC(=O)[C@H](Cc1ccccc1)NC(=O)[C@@H]1CCCN1C(=O)[C@H](Cc1ccc(O)cc1)NC(=O)[C@@H]1CCCN1` [C-amidated PYPF] (H-PYPF-NH2): under setting [5], the inhibition at 100 µM worked out at 33%.

With `CC[C@H](C)[C@H](N)C(=O)N[C@@H](CCCCN)C(=O)N1CCC[C@H]1C(=O)N[C@@H](Cc1ccccc1)C(=O)O` [IKPF] (H-IKPF-OH), under setting [2], the inhibition at 100 µM came out at 28%.

Turning to `C[C@H](N)C(=O)N[C@@H](Cc1c[nH]cn1)C(=O)N1CCC[C@H]1C(=O)N[C@@H](Cc1ccccc1)C(=O)O` [AHPF] (H-AHPF-OH), the inhibition at 100 µM under setting [2] came out at 59%.

Consider `CC[C@H](C)[C@H](N)C(=O)N[C@@H](Cc1c[nH]cn1)C(=O)N[C@H](C(=O)N[C@@H](Cc1ccccc1)C(=O)O)[C@@H](C)CC` [IHIF] (H-IHIF-OH), for which, under setting [2], the inhibition at 100 µM came to 44%.

Turning to `NC(=O)[C@H](Cc1ccccc1)NC(=O)[C@@H]1CCCN1C(=O)[C@H](Cc1c[nH]cn1)NC(=O)[C@@H]1CCCN1` [C-amidated PHPF] (H-PHPF-NH2), under setting [1], the inhibition at 100 µM was 1%.

As for `CC(C)[C@H](N)C(=O)N[C@@H](Cc1ccc(O)cc1)C(=O)N1CCC[C@H]1C(=O)N[C@@H](Cc1ccccc1)C(N)=O` [C-amidated VYPF] (H-VYPF-NH2), the inhibition at 100 µM under setting [5] is 25%.

Regarding `CC[C@H](C)[C@H](N)C(=O)N[C@@H](Cc1c[nH]cn1)C(=O)N1CCC[C@H]1C(=O)N[C@@H](CC(C)C)C(=O)O` [IHPL] (H-IHPL-OH), the inhibition at 100 µM under setting [2] amounted to 48%.

Turning to `CC[C@H](C)[C@H](N)C(=O)NCC(=O)N1CCC[C@H]1C(=O)N[C@@H](Cc1ccccc1)C(=O)O` [IGPF] (H-IGPF-OH), under setting [2], the inhibition at 100 µM is 39%.

Take `CC[C@H](C)[C@H](N)C(=O)N[C@@H](Cc1ccc(O)cc1)C(=O)N[C@H](C(=O)N[C@@H](Cc1ccccc1)C(=O)O)C(C)C` [IYVF] (H-IYVF-OH): under setting [6], the inhibition at 100 µM turned out to be 77%.

For `CC(=O)N[C@H](C(=O)N[C@@H](Cc1c[nH]cn1)C(=O)N[C@H](C(=O)N[C@@H](Cc1ccccc1)C(N)=O)C(C)C)C(C)C` [N-acetylated/C-amidated VHVF] (Ac-VHVF-NH2), the inhibition at 10 µM under setting [3] came out at 4%. The inhibition at 100 µM under setting [1] was determined as 21%.

Regarding `CC(C)[C@H](N)C(=O)N[C@@H](Cc1ccc(O)cc1)C(=O)N1CCC[C@H]1C(=O)N[C@@H](Cc1ccccc1)C(=O)O` [VYPF] (H-VYPF-OH), the inhibition at 100 µM under setting [4] came to 90%.

On to `NCC(=O)N[C@@H](Cc1c[nH]cn1)C(=O)N1CCC[C@H]1C(=O)N[C@@H](Cc1ccccc1)C(=O)O` [GHPF] (H-GHPF-OH), for which the inhibition at 100 µM under setting [2] came to 0%.

`CC[C@H](C)[C@H](N)C(=O)N[C@@H](Cc1c[nH]cn1)C(=O)N1CCC[C@H]1C(=O)N[C@@H](C)C(=O)O` [IHPA] (H-IHPA-OH): under setting [2], the inhibition at 100 µM stood at 44%.

In the case of `CC[C@H](C)[C@H](NC(C)=O)C(=O)N[C@@H](Cc1c[nH]cn1)C(=O)N1CCC[C@H]1C(=O)N[C@@H](Cc1ccccc1)C(=O)O` [N-acetylated IHPF] (Ac-IHPF-OH), the inhibition at 10 µM under setting [3] was determined as 41%. For the same molecule, the inhibition at 100 µM under setting [1] amounted to 87%.

As for `CC(C)[C@H](NC(=O)[C@H](Cc1c[nH]cn1)NC(=O)[C@@H]1CCCN1)C(=O)N[C@@H](Cc1ccccc1)C(N)=O` [C-amidated PHVF] (H-PHVF-NH2), the inhibition at 100 µM under setting [1] is 12%.

`CC(=O)N1CCC[C@H]1C(=O)N[C@@H](Cc1c[nH]cn1)C(=O)N[C@H](C(=O)N[C@@H](Cc1ccccc1)C(=O)O)C(C)C` [N-acetylated PHVF] (Ac-PHVF-OH): under setting [1], the inhibition at 100 µM was found to be 8%.
